Laboratory results taken from US20210188843A1, “QUINOLINE COMPOUNDS AND THEIR PREPARATION AND USE AS ANTIMALARIAL AGENTS” (The United States of America,as represented by the …, priority 2018, published 2021).
Values after ≈ are worked out from the molar mass of the structure shown. Like-named read-outs stand apart in the source and are kept apart here.

How the values were obtained:
[1] = Microsomal stability (rat); format: in vitro ADME; settings: rat microsomes
Solubility pH 7.4 = format: physicochemical; settings: aqueous buffer
[2] = system: Asexual parasites of P. falciparum strain 3D7; test: In vitro drug activity on asexual parasites (SYBR Green assay); format: cell-based; settings: Plasmodium falciparum, P. falciparum 3D7 asexual stage, 72 h, read-out: Asexual EC50
Method: Cell culture. Asexual parasites of P. falciparum strain 3D7 were cultured as described previously [Trager W, et al., Journal of Parasitology 2005, 91: 484-486]. Stage III-V gametocytes were selected and enriched with 3-day treatment with 50 mM N-acetylglucosamine (NAG) and the following Percoll density gradient centrifugation after gametocyte production [Tanaka T Q, et al., Molecular and Biochemical Parasitology, 2011, 177: 160-163]. Gametocytes of HB3 and Dd2 strains were produced and then set up for assay in a similar process. HepG2 cells (ATCC, cat. no. 77400) were cultured in 175-cm^2 tissue culture flasks with 30 ml growth medium at 37° C. in a 5% CO2 humidified atmosphere. Growth medium was made with Dulbecco's Modified Eagle Medium with 10% fetal bovine serum (FBS). Growth medium was replaced every other day and cells were passed at 75% confluence.
Asexual parasites of P. falciparum strain 3D7 were cultured as described previously (Trager, W. et al., J. Parasitol. 2005, 91(3): 484-486). Drug activity on asexual stage parasites was tested using a SYBR Green assay as described previously (Eastman, R. T. et al., Antimicrob. Agents Chemother. 2013, 57(1): 425-435; Smilkstein, M. et al., Antimicrob. Agents Chemother. 2004, 48(5): 1803-1806). Briefly, parasites were diluted to 0.5% parasitemia in complete culture medium with 2% hematocrit and drugs diluted in DMSO (<0.5%) and were loaded into a 96-well plate (200 μl/well). No drug and RBC alone wells were included as positive and background controls, respectively, and each testing condition was examined in duplicated. After 72 h incubation under the standard culture condition and a freeze-thaw lysis step at −80° C. and room temperature, 100 μl/well of lysis buffer containing SYBR Green I was added to the parasite culture and incubated for 30 min at room temperature. The fluorescence of each well was measured at 520 nm following excitation at 490 nm using a FLUOstar Optima™ microplate reader (BMG Labtech).
Compounds were screened against gametocytes and asexual parasites as described in Examples 1 and 2.

[3] = Table 1, read-out: Microsomal Stability (rat) T1/2

half-life ([1]; Table 3, read-out: Microsomal Stability (rat) T1/2) | solubility (Solubility pH 7.4; Table 3) | EC50 ([2]; Table 3) | half-life [1, 3] | solubility (Solubility pH 7.4; Table 1) | EC50 ([2]; Table 1) | SMILES
> 30 min | 5.2 µg/mL (≈ 13.5 µM) | 1570 nM |  |  |  | Cn1c(=N)n(-c2nccc(N)n2)c2c3cc(-c4cccc(F)c4)ccc3ncc21
 |  |  | > 30 min | 14.2 µg/mL (≈ 32.4 µM) | 8.36 nM | Cc1ccc(C#N)cc1-n1c(=N)n(C)c2cnc3ccc(-c4ccc(C(N)=O)s4)cc3c21 [Compound 1, 5-(1-(5-cyano-2-methylphenyl)-2-imino-3-methyl-2,3-dihydro-1H-imidazo[4,5-c]quinolin-8-yl)thiophene-2-carboxamide]
 |  |  | > 30 min | > 60 µg/mL | 5.31 nM | Cc1ccc(C#N)cc1-n1c(=N)n(C)c2cnc3ccc(-c4ccc(N)nc4)cc3c21 [Compound 2, 3-(8-(6-aminopyridin-3-yl)-2-imino-3-methyl-2,3-dihydro-H-imidazo[4,5-c]quinolin-1-yl)-4-methylbenzonitrile]
 |  |  | > 30 min | 3.6 µg/mL (≈ 8.1 µM) | 20.3 nM | Cc1ccc(C#N)cc1-n1c(=N)n(C)c2cnc3ccc(-c4ccc5c(c4)CC(=O)N5)cc3c21 [Compound 3, 3-(2-imino-3-methyl-8-(2-oxoindolin-5-yl)-2,3-dihydro-1H-imidazo[4,5-c]quinolin-1-yl)-4-methylbenzonitrile]
 |  |  | > 30 min | 3.4 µg/mL (≈ 7.76 µM) | 360 nM | CCc1ccc(C#N)cc1-n1c(=N)n(C)c2cnc3ccc(-c4ccc(Cl)cc4)cc3c21 [Compound 7, 3-(8-(4-chlorophenyl)-2-imino-3-methyl-2,3-dihydro-1H-imidazo[4,5-c]quinolin-1-yl)-4-ethylbenzonitrile]
 |  |  | > 30 min | < 1 µg/mL | 24.4 nM | Cn1c(=N)n(-c2cc(C#N)ccc2F)c2c3cc(-c4ccc(Cl)cc4)ccc3ncc21 [Compound 10, 3-(8-(4-chlorophenyl)-2-imino-3-methyl-2,3-dihydro-1H-imidazo[4,5-c]quinolin-1-yl)-4-fluorobenzonitrile]
 |  |  | > 30 min | > 38 µg/mL | 477 nM | Cn1cc(-n2c(=N)n(C)c3cnc4ccc(-c5ccc(Cl)cc5)cc4c32)cn1 [Compound 13, 8-(4-chlorophenyl)-3-methyl-1-(1-methyl-1H-pyrazol-4-yl)-1,3-dihydro-2H-imidazo[4,5-c]quinolin-2-imine]
 |  |  | > 30 min | < 1 µg/mL | 175 nM | Cc1cc(N2CCNCC2)c(C#N)cc1-n1c(=N)n(C)c2cnc3ccc(-c4ccc(Cl)cc4)cc3c21 [Compound 14, 5-(8-(4-chlorophenyl)-2-imino-3-methyl-2,3-dihydro-1H-imidazo[4,5-c]quinolin-1-yl)-4-methyl-2-(piperazin-1-yl)benzonitrile]
 |  |  | > 30 min | < 1 µg/mL | 591 nM | Cc1cc(N2CCN(C(=O)OC(C)(C)C)CC2)c(C#N)cc1-n1c(=N)n(C)c2cnc3ccc(-c4ccc(Cl)cc4)cc3c21 [Compound 15, tert-butyl 4-(4-(8-(4-chlorophenyl)-2-imino-3-methyl-2,3-dihydro-1H-imidazo[4,5-c]quinolin-1-yl)-2-cyano-5-methylphenyl)piperazine-1-carboxylate]
 |  |  | 10.4 min | < 1 µg/mL | 240 nM | Cc1ccc(S(=O)(=O)/N=c2\n(C)c3cnc4ccc(-c5ccc(Cl)cc5)cc4c3n2-c2cc(C#N)ccc2C)cc1 [Compound 16, (E)-N-(8-(4-chlorophenyl)-1-(5-cyano-2-methylphenyl)-3-methyl-1,3-dihydro-2H-imidazo[4,5-c]quinolin-2-ylidene)-4-methylbenzenesulfonamide]
 |  |  | > 30 min | 1.1 µg/mL (≈ 2.29 µM) | 542 nM | CCCC/N=c1\n(C)c2cnc3ccc(-c4ccc(Cl)cc4)cc3c2n1-c1cc(C#N)ccc1C [Compound 17, (E)-3-(2-(butylimino)-8-(4-chlorophenyl)-3-methyl-2,3-dihydro-1H-imidazo[4,5-c]quinolin-1-yl)-4-methylbenzonitrile]
 |  |  | > 30 min | 26 µg/mL (≈ 57.3 µM) | 778 nM | CCOc1ccc(C#N)cc1-n1c(=N)n(C)c2cnc3ccc(-c4ccc(Cl)cc4)cc3c21 [Compound 19, 3-(8-(4-chlorophenyl)-2-imino-3-methyl-2,3-dihydro-1H-imidazo[4,5-c]quinolin-1-yl)-4-ethoxybenzonitrile]
 |  |  | > 30 min | < 1 µg/mL | 6.28 nM | Cc1ccc(C#N)cc1-n1/c(=N/S(C)(=O)=O)n(C)c2cnc3ccc(-c4ccc(Cl)cc4)cc3c21 [Compound 20, (E)-N-(8-(4-chlorophenyl)-1-(5-cyano-2-methylphenyl)-3-methyl-1,3-dihydro-2H-imidazo[4,5-c]quinolin-2-ylidene)methanesulfonamide]
 |  |  | > 30 min | 3.5 µg/mL (≈ 8.24 µM) | 62.3 nM | Cc1ncc(C#N)cc1-n1c(=N)n(C)c2cnc3ccc(-c4ccc(Cl)cc4)cc3c21 [Compound 22, 5-(8-(4-chlorophenyl)-2-imino-3-methyl-2,3-dihydro-1H-imidazo[4,5-c]quinolin-1-yl)-6-methylnicotinonitrile]
 |  |  | > 30 min | > 43 µg/mL | 30.8 nM | Cc1ccc(C#N)cc1-n1c(=N)n(C)c2cnc3ccc(-c4ccc(Cl)c(N)c4)cc3c21 [Compound 40, 3-(8-(3-amino-4-chlorophenyl)-2-imino-3-methyl-2,3-dihydro-1H-imidazo[4,5-c]quinolin-1-yl)-4-methylbenzonitrile]
 |  |  | > 30 min | 7.8 µg/mL (≈ 19 µM) | 130 nM | Cn1c(=N)n(-c2cncc(C#N)c2)c2c3cc(-c4ccc(Cl)cc4)ccc3ncc21 [Compound 45, 5-(8-(4-chlorophenyl)-2-imino-3-methyl-2,3-dihydro-1H-imidazo[4,5-c]quinolin-1-yl)nicotinonitrile]
 |  |  | > 30 min | 19.9 µg/mL (≈ 46.4 µM) | 1760 nM | Cn1c(=N)n(-c2cncc(C(N)=O)c2)c2c3cc(-c4ccc(Cl)cc4)ccc3ncc21 [Compound 46, 5-(8-(4-chlorophenyl)-2-imino-3-methyl-2,3-dihydro-1H-imidazo[4,5-c]quinolin-1-yl)nicotinamide]
 |  |  | > 30 min | 6 µg/mL (≈ 11.8 µM) | 69.7 nM | Cc1nc(N2CCNCC2)c(C#N)cc1-n1c(=N)n(C)c2cnc3ccc(-c4ccc(Cl)cc4)cc3c21 [Compound 47, 5-(8-(4-chlorophenyl)-2-imino-3-methyl-2,3-dihydro-1H-imidazo[4,5-c]quinolin-1-yl)-6-methyl-2-(piperazin-1-yl)nicotinonitrile]
 |  |  | > 30 min | < 1 µg/mL | 309 nM | Cn1c(=N)n(-c2cnc(N3CCOCC3)c(C#N)c2)c2c3cc(-c4ccc(Cl)cc4)ccc3ncc21 [Compound 50, 5-(8-(4-chlorophenyl)-2-imino-3-methyl-2,3-dihydro-1H-imidazo[4,5-c]quinolin-1-yl)-2-morpholinonicotinonitrile]
 |  |  | > 30 min | < 1 µg/mL | 1420 nM | Cn1c(=N)n(-c2cc(C#N)ccc2OC(F)(F)F)c2c3cc(-c4ccc(Cl)cc4)ccc3ncc21 [Compound 54, 3-(8-(4-chlorophenyl)-2-imino-3-methyl-2,3-dihydro-1H-imidazo[4,5-c]quinolin-1-yl)-4-(trifluoromethoxy)benzonitrile]
 |  |  | > 30 min | > 47 µg/mL | 2520 nM | Cn1c(=N)n(C2CCN(C3CCOCC3)CC2)c2c3cc(-c4ccc(Cl)cc4)ccc3ncc21 [Compound 57, 8-(4-chlorophenyl)-3-methyl-1-(1-(tetrahydro-2H-pyran-4-yl)piperidin-4-yl)-1,3-dihydro-2H-imidazo[4,5-c]quinolin-2-imine]
 |  |  | > 30 min | > 47 µg/mL | 13200 nM | Cn1c(=N)n([C@H]2CC[C@@H](N3CCOCC3)CC2)c2c3cc(-c4ccc(Cl)cc4)ccc3ncc21 [Compound 59, 8-(4-chlorophenyl)-3-methyl-1-((1s,4s)-4-morpholinocyclohexyl)-1,3-dihydro-2H-imidazo[4,5-c]quinolin-2-imine]
 |  |  | 10 min | 19.2 µg/mL (≈ 47.6 µM) | 1720 nM | Cc1ccccc1-c1ccc2ncc3c(c2c1)n(-c1cc(C#N)ccc1C)c(=N)n3C [Compound 61, 3-(2-imino-3-methyl-8-(o-tolyl)-2,3-dihydro-1H-imidazo[4,5-c]quinolin-1-yl)-4-methylbenzonitrile]
 |  |  | 18.5 min | 7.8 µg/mL (≈ 18.4 µM) | 704 nM | Cc1ccc(C#N)cc1-n1c(=N)n(C)c2cnc3ccc(-c4ccccc4Cl)cc3c21 [Compound 62, 3-(8-(2-chlorophenyl)-2-imino-3-methyl-2,3-dihydro-1H-imidazo[4,5-c]quinolin-1-yl)-4-methylbenzonitrile]
